Test results: paper PMC6680770, “Effect of Ticagrelor, a Cytochrome P450 3A4 Inhibitor, on the Pharmacokinetics of Tadalafil in Rats” (Pharmaceutics, 2019)
Values joined by “and” are separate entries in the source; they are usually repeats but may differ in a detail not shown here. Equal values may be shown once. Read-outs that look alike come from different tables or passages of the source.

Assays:
[1] = longer than sildenafil or vardenafil; cited from earlier work
[2] = Pharmacokinetic study of tadalafil after oral administration to non-pretreated and ticagrelor-pretreated rats, non-compartment analysis; format: in vivo, Sprague-Dawley rats; details: tadalafil 2 mg/kg oral; for Cmax / AUC(0-inf) / CL/F / Tmax / half-life / AUC(0-t): Sprague-Dawley, rat, plasma, po, 2 mg/kg, mean ± SD, n = 10; for AUC(0-t): read-out: AUC0–24
Procedure: The concentrations of tadalafil were analyzed by a liquid chromatography tandem-mass spectrometry (LC-MS/MS) system equipped with Agilent 1290 series and Agilent 6495 Triple Quad LC/MS (Agilent Technologies, Santa Clara, CA, USA). A YMC-Triart C18 column (50 × 2.0 mm, 1.9 µm; YMC Inc., Wilmington, NC, USA) was used. The mobile phase was a mixture of 0.2% formic acid in acetonitrile and 0.2% formic acid in distilled water (50:50, v/v), and the flow rate was 0.4 mL/min. The temperature of the column and autosampler were set as 30 °C and 4 °C, respectively. The positive ion mode using Agilent jet stream electrospray ionization (AJS-ESI) was applied to record the scan mass spectra. The ion transitions of tadalafil and IS were set as 390.4→268.1 m/z and 876.4→308.1 m/z, respectively, and detected with a multiple reaction monitoring (MRM) mode. The collision energies for tadalafil and IS were 10 V and 30 V, respectively. The cell accelerator voltage was 5 V and the dwell time was set as 200 ms. The source parameters were set as follows: Gas temperature 200 °C, gas flow 14 L/min, nebulizer 20 psi, sheath gas heater 250 °C, sheath gas flow 11 L/min, capillary 3000 V, and nozzle voltage 1500 V.
(§1) The experiment was performed in a parallel design. A total of 20 rats were randomly divided into two groups. The control group, Group N (n = 10, non-pretreated rats), was orally administered for 7 days only with the vehicle (normal saline/polyethylene glycol 400/dimethyl sulfoxide = 40:20:20). Group T (n = 10, ticagrelor-pretreated rats), an experimental group, received 10 mg/kg of ticagrelor in the vehicle once a day for 7 days orally. Thereafter, on the seventh day, tadalafil (2 mg/kg) was orally administered 30 min after the final administration of the vehicle or ticagrelor. Doses of all samples were calculated according to the weight of the rats and administered using gavage. The dose of ticagrelor and tadalafil given to rats were determined by converting the human doses (90 mg for ticagrelor and 20 mg for tadalafil) to animal doses with body surface area, according to the United States Food and Drug Administration guidelines. Blood (0.3 mL) was collected from the retro-orbital plexus or the jugular vein at predetermined time-points (0, 0.33, 0.67, 1, 1.5, 2, 4, 6, 8, 12, and 24 h) after the oral administration. Samples were centrifuged at 15,000× g for 5 min at 4 °C. The plasma was collected and stored at −20 °C until the concentration of tadalafil was analyzed by LC-MS/MS.
Protein precipitation was applied to extract tadalafil from plasma. Briefly, 200 µL of acetonitrile (0.2 v/v% formic acid) containing 500 ng/mL of IS was added to 20 µL of the plasma sample. After shaking for 5 min, the mixture was centrifuged at 15,000× g for 5 min. The supernatant (150 µL) was transferred and 5 µL of the sample was injected into the LC-MS/MS.
Pharmacokinetic data were analyzed based on the non-compartment analysis of WinNonlin software 8.1 (Pharsight Corp., Sunnyvale, CA, USA). The maximum plasma concentration of tadalafil (maximum concentration (Cmax)) and the time to reach the maximal plasma concentration (Tmax) of tadalafil were determined from the plasma concentration-time profiles. The area under the plasma concentration vs time curve from 0 to 24 h (AUC0–24) was calculated by the linear trapezoidal rule and the area under the plasma concentration vs time curve from 0 h to infinite time (AUC0–∞) was estimated by extrapolating time to infinity. The elimination half-life (T1/2) and apparent total clearance (CL/F) were determined from the ln 2/elimination rate constant and dose/AUC0–∞, respectively.

[3] = One-compartment pharmacokinetic modeling of the plasma concentration-time profile of tadalafil; format: in vivo, Sprague-Dawley rats; details: one-compartment model; for k el: Sprague-Dawley, rat, plasma, read-out: Ke (converted); for k el / Ka / V/F: tadalafil 2 mg/kg oral, mean ± SD, n = 10
Procedure: as §1
Pharmacokinetic modeling of the plasma concentration-time profile of tadalafil was performed using a one-compartment model to investigate the absorption and elimination rates. The parameters of the one-compartment model of tadalafil were estimated based on data from Group N and Group T.
In this model, the shift of the tadalafil amount in the gut compartment and the central compartment is described by the following equations [33]: dG/dt= −Ka·G dC/dt=Ka·G−Ke·C where G and C represent the amount of tadalafil in the gut compartment and the central compartment, respectively. Ka indicates the absorption rate constant from the gut compartment to the central compartment. Ke indicates the elimination rate constant from the central compartment […]. Each equation was applied to both Group N and Group T data through the classic model of WinNolin software 8.1 (Pharsight Corp., Sunnyvale, CA, USA).
Predicted plasma concentrations of tadalafil (Conpred) using the one-compartment model were estimated by the following equation [34]: Conpred= C/(V/F) where V/F indicates the central volume of distribution of tadalafil.

[4] = design: method as in PMID 14622499; details: cited from earlier work
CYP3A = assay: Classification of ticagrelor as CYP3A inhibitor from changes in tadalafil AUC and clearance; format: in vivo; details: weak inhibitor = increases AUC of CYP substrate 1.25-fold to 2-fold or reduces clearance by 20–50%; inferred from tadalafil AUC (1.61-fold) and clearance (37%) in rats
Procedure: as §1, with “Blood (0.3 mL) was collected from the retro-orbital plexus or the jugular vein at predetermined time-points (0, 0.33, 0.67, 1, 1.5, 2, 4, 6, 8, 12, and 24 h) after the oral administration. Samples were centrifuged at 15,000× g for 5 min at 4 °C.” left out
Pharmacokinetic data were analyzed based on the non-compartment analysis of WinNonlin software 8.1 (Pharsight Corp., Sunnyvale, CA, USA). The maximum plasma concentration of tadalafil (maximum concentration (Cmax)) and the time to reach the maximal plasma concentration (Tmax) of tadalafil were determined from the plasma concentration-time profiles. […]

[5] = Group T, ticagrelor-pretreated rats (10 mg/kg, 7 days)
[6] = rats, ticagrelor pretreatment, p < 0.05
[7] = rats, ticagrelor-pretreated vs non-pretreated
[8] = Group T, ticagrelor-pretreated rats
[9] = ticagrelor-pretreated vs non-pretreated rats

**Q.** Which “clinical efficacy (duration)” value [1] does the source give for `CN1CC(=O)N2[C@H](c3ccc4c(c3)OCO4)c3[nH]c4ccccc4c3C[C@@H]2C1=O` [tadalafil, Tadalafil] here?
**A.** Its value is “up to 36 h”.

**Q.** What about the Cmax ([2]; Group N, non-pretreated rats (vehicle 7 days)) of the same compound?
**A.** The Cmax was 376 ± 72.8 ng/mL.

**Q.** And the AUC(0-inf) ([2]; Group N, non-pretreated rats)?
**A.** Its AUC(0-inf) is 3070 ± 743 ng·h/mL.

**Q.** And the CL/F ([2]; Group N, non-pretreated rats)?
**A.** Its CL/F is 11.3 mL/min/kg.

**Q.** And the Tmax ([2]; Group N, non-pretreated rats)?
**A.** The Tmax was 1.45 ± 0.5 h.

**Q.** What about the half-life ([2]; Group N, non-pretreated rats) of the same compound?
**A.** Its half-life is 3.15 ± 0.23 h.

**Q.** And the AUC(0-t) ([2]; Group N, non-pretreated rats)?
**A.** Its AUC(0-t) is 3050 ± 732 ng·h/mL.

**Q.** And the Cmax ([2]; Group T, ticagrelor-pretreated rats (10 mg/kg oral once a day, 7 days))?
**A.** Its Cmax is 433 ± 120 ng/mL.

**Q.** And the AUC(0-inf) [2, 5]?
**A.** Its AUC(0-inf) is 5100 ± 1800 ng·h/mL.

**Q.** And the CL/F [2, 5]?
**A.** Its CL/F is 7.17 mL/min/kg.

**Q.** What about the Tmax [2, 5] of the same compound?
**A.** The Tmax was 3.22 ± 1.3 h.

**Q.** And the half-life [2, 5]?
**A.** Its half-life is 4.47 ± 0.89 h.

**Q.** What about the AUC(0-t) [2, 5] of the same compound?
**A.** Its AUC(0-t) is 4900 ± 1590 ng·h/mL.

**Q.** What about the “increase of AUC of tadalafil by co-administration with ticagrelor” value ([2]; rats, ticagrelor pretreatment) of the same compound?
**A.** The value was “approximately 61%”.

**Q.** What about the “increase of Tmax, Group T compared to Group N” value ([2]; rats, ticagrelor pretreatment) of the same compound?
**A.** Its value is 2.22 fold.

**Q.** What about the “reduction of tadalafil clearance, Group T compared with Group N” value ([2]; rats, ticagrelor pretreatment) of the same compound?
**A.** The value was 37%.

**Q.** And the “increase of Cmax, Group T compared to Group N” value ([2]; rats, ticagrelor pretreatment, no significant difference (p = 0.3332))?
**A.** Its value is 1.15 fold.

**Q.** What about the “increase of AUC0–24 (systemic exposure), Group T compared to Group N” value [2, 6] of the same compound?
**A.** Its value is 1.61 fold.

**Q.** What about the “increase of AUC0–∞, Group T compared to Group N” value [2, 6] of the same compound?
**A.** The value was 1.66 fold.

**Q.** What about the “AUC0–24 Ratio (Group T/Group N)” value [2, 7] of the same compound?
**A.** The value was 1.61.

**Q.** What about the “AUC0–∞ Ratio (Group T/Group N)” value [2, 7] of the same compound?
**A.** The value was 1.66.

**Q.** What about the “CL/F Ratio (Group T/Group N)” value [2, 7] of the same compound?
**A.** Its value is 0.63.

**Q.** And the “Cmax Ratio (Group T/Group N)” value [2, 7]?
**A.** The value was 1.15.

**Q.** What about the “T1/2 Ratio (Group T/Group N)” value [2, 7] of the same compound?
**A.** Its value is 1.42.

**Q.** What about the “Tmax Ratio (Group T/Group N)” value [2, 7] of the same compound?
**A.** Its value is 2.22.

**Q.** What about the k el ([3]; Group N, non-pretreated rats) of the same compound?
**A.** Its k el is 4.72e-05 s⁻¹.

**Q.** What about the k el [3, 8] of the same compound?
**A.** The k el was 3.61e-05 s⁻¹.

**Q.** And the Ka ([3]; Group N, non-pretreated rats)?
**A.** Its Ka is 1.71 ± 0.91 h⁻¹.

**Q.** What about the V/F ([3]; Group N, non-pretreated rats) of the same compound?
**A.** The V/F was 4.39 ± 0.78 L/kg and 4.39 ± 0.76 L/kg.

**Q.** What about the Ka [3, 8] of the same compound?
**A.** Its Ka is 1.14 ± 0.73 h⁻¹.

**Q.** What about the V/F [3, 8] of the same compound?
**A.** Its V/F is 3.36 ± 0.95 L/kg.

**Q.** What about the “Ka Ratio (Group T/Group N)” value [3, 9] of the same compound?
**A.** The value was 0.67.

**Q.** What about the “Ke Ratio (Group T/Group N)” value [3, 9] of the same compound?
**A.** Its value is 0.77.

**Q.** What about the “V/F Ratio (Group T/Group N)” value [3, 9] of the same compound?
**A.** Its value is 0.77.

**Q.** And the half-life ([4]; elderly men)?
**A.** Its half-life is “about 21.6 h”.

**Q.** What about the half-life ([4]; normal healthy men, after administration) of the same compound?
**A.** The half-life was “approximately 17.5 h”.

**Q.** For `CCCSc1nc(N[C@@H]2C[C@H]2c2ccc(F)c(F)c2)c2nnn([C@@H]3C[C@H](OCCO)[C@@H](O)[C@H]3O)c2n1` [ticagrelor, Ticagrelor], which CYP3A inhibitor classification (CYP3A) is on record?
**A.** The CYP3A inhibitor classification was “weak CYP3A inhibitor”.
